Source: patent US9845512B2, “Screening assay employing Dex and GDF8” (RIGEL PHARMACEUTICALS, INC., priority 2010, dated 2017)

Tested on: endogenous MuRF1
Experiment: Endogenous MuRF1 expression in HepG2 cells by Taqman RT-PCR
Type: cell-based, human
Procedure: Cultured HepG2 cells were exposed to 1 μM dexamethasone, 10 μM dexamethasone, 100 ng/ml GDF8, 100 ng/ml TGFβ1, and 10 μM dexamethasone+100 ng/ml GDF8, and expression of endogenous MuRF1 was evaluated by RT-PCR using Taqman RT-PCR assay. […] 10 μM dexamethasone induced expression of endogenous MuRF1 2.5× over the no treatment control, and 100 ng/ml GDF8 induced expression of endogenous MuRF1 1.8× over the no treatment control.
MuRF1 induction is observable at four hours of treatment, as compared to controls.

Compound	induction of endogenous MuRF1 expression over the no treatment control (10 μM dexamethasone alone)	induction of endogenous MuRF1 expression over the no treatment control (100 ng/ml GDF8 alone)
C[C@@H]1C[C@H]2[C@@H]3CCC4=CC(=O)C=C[C@]4(C)[C@@]3(F)[C@@H](O)C[C@]2(C)[C@@]1(O)C(=O)CO [dexamethasone]	2.5 ×	
GDF8: secreted TGFβ protein family member that inhibits muscle differentiation and growth; ligand for the myostatin receptor		1.8 ×
